Literature values in patent US20060189586A1, “Pharmaceutical compositions comprising active vitamin D compounds” (priority 2003, published 2006).

Details: in vivo

Row | SMILES | Hypercalcemic effect compared to calcitriol
1 | C=C1/C(=C\C=C2/CCC[C@]3(C)C([C@H](C)CC#CC(C)(C)O)=CC[C@@H]23)C[C@@H](O)C[C@@H]1O [Ro23-7553] | reduced hypercalcemic effect
2 | C=C1/C(=C/C=C2\CCC[C@]3(C)C([C@H](C)CC#CC(O)(C(F)(F)F)C(F)(F)F)=CC[C@@H]23)C[C@@H](O)C[C@@H]1O [Ro24-5531] | reduced hypercalcemic effect
